# Laboratory results as given in article PMC8351955, “Targeting Mycobacterium tuberculosis response to environmental cues for the development of effective antitubercular drugs” (PLoS Biology, 2021).
# “And” between values parts separate entries of the source, which are not always exact repeats. Equal values may be shown once.
# Test system: Mtb growth in J774 macrophage-like cells
# Experiment: J774 infection in 96-well plates, mKO fluorescence 6 days post-infection
# Format: cell-based, Mycobacterium tuberculosis
# Details: for % Growth: Fig. 2D, DMSO = 100
# Summary of the method: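 J774 cells infected with mKO-expressing log-phase Mtb (40 μl at OD600 = 0.2 per well) and treated with compound at 10 μM final (0.1% DMSO). mKO fluorescence (ex 543/em 565 nm) read at infection and 6 days later at 37 °C, 5% CO2; growth expressed relative to DMSO controls as 100%.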
structure (smiles),measurement,setting,value
"CCSc1ncc(CN2CCN(c3nc4ccccc4o3)CC2)cn1 [C6, 2-(4-((2-(ethylthio)pyrimidin-5-yl)methyl)piperazin-1-yl)benzo[d]oxazole]","% growth of Mtb in J774 cells, average","10 μM compound, 6 days post-infection, DMSO = 100%, Fig 1H",40.8112%
same,Inhibition of Mtb growth in J774 cells,"10 μM, 6 days post-infection",Mtb growth inhibition
same,% Growth,average of 4 replicates,56.2334%
same,% Growth,individual replicates,53.4835% and 56.5013% and 56.5506% and 58.3983%
